Assays:
[1] = test system: anti-HRP antibody, anti-hCG antibody, anti-CRP antibody, anti-HBsAg antibody; assay: One-step immunoassay on solid support, release of switching binder on target antigen binding (FIGS. 8A to 8D); parameters: species or system rabbit, mouse, goat; conditions: after treatment with target antigen (HRP, hCG, CRP, HBsAg); 10 or 20 μM switching binder; fluorescence
Protocol: With reference to FIG. 8A, anti-HRP antibody was treated and fixed overnight on a solid support at a concentration of 1 μg/ml, and the switching binder 100 of SEQ ID NOs. 1 to 4 were each treated at a concentration of 10 μM (100 μl/well) for 2 hours. At this time, after measuring the fluorescence of the bottom, the antigen HRP as an analyte for an IgG antibody of rabbit was treated at a concentration of 10 μg/ml for 1 hour. With reference to FIG. 8B, anti-HCG antibody was treated and fixed overnight on a solid support at a concentration of 1 μg/ml, and the switching binder 100 of SEQ ID NOs. 1 to 4 were each treated at a concentration of 20 μM (100 μl/well) for 2 hours. At this time, after measuring the fluorescence of the bottom, the antigen HCG as an analyte for an IgG antibody of a mouse was treated at a concentration of 100 μg/ml for 2 hours.
With reference to FIG. 8C, anti-CRP antibody was treated and fixed overnight on a solid support at a concentration of 1 μg/ml, and the switching binder 100 of SEQ ID NOs. 1 to 4 were each treated at a concentration of 20 μM (100 μl/well) for 2 hours. At this time, after measuring the fluorescence of the bottom (A), the antigen […] as an analyte for an IgG antibody of rabbit was treated at a concentration of 10 μg/ml for 1 hour. […] At this time, after measuring the fluorescence of the bottom (A), the antigen HBsAg as an analyte for an IgG antibody of a goat was treated at a concentration of 10 μg/ml for 1 hour.
Referring to FIGS. 8A to 8D, the switching binder 100 was tested using the switching binder of SEQ ID NOs. […] The labeling reaction may be a fluorescence reaction. […]
Referring to FIGS. 8A to 8D, it can be seen that the remaining amount (B) of the switching binder 120 bound to the framework region (FR) was reduced compared to the amount (A) of the switching binder 110 bound to the antibody 10 in all of the switching binder of SEQ ID NO. […] In addition, it can be seen that the amount (C) of the switching binder 130 separated from the framework region (FR) is measured. […]
This is because the amount (A) of the switching binder 110 bound to the antibody 10 is the intensity of fluorescence observed on the surface of the support 30, but the amount (C) of the switching binder 130 separated from the framework region (FR) is the intensity of fluorescence observed in the solution phase. […] According to an embodiment of the present disclosure, as described above, it is possible to quantify the target antigen 20 by the difference between the amount of the switching binder 110 bound to the antibody 10 measured in the pretreatment step (S100) and the amount of the switching binder 120 in the remaining amount bound to the framework region (FR) in the assay step (S300). […]

[2] = test system: anti-influenza B antibody; assay: Bead-based antibody binding one-step immunoassay (FIGS. 9A and 9B); conditions: influenza B versus CRP at 10 ng/mL; separated and remaining switching binder quantified
[3] = test system: switching binder of SEQ ID NO. 1 (H1) / switching binder of SEQ ID NO. 4 (L2); assay: FRET test of mutual binding between switching binders H1 and L2 (FIG. 6E)
Description: 1 (H1) and the switching binder of SEQ ID NO. 4 […]. Through this, it can be confirmed that the switching binder of SEQ ID NO. 1 (H1) can interact with the LBR region of the light chain (VL), and the switching binder of SEQ ID NO. 4 (L2) can interact with the HBR region of the heavy chain (VH). Through this property, the switching binder 100 binds to the framework region (FR), and thus the same effect as the interaction between the framework regions (FR) can be obtained.

[4] = biological target: anti-HRP antibody / HRP; assay: Antigen-binding coefficient of the antibody in solution measured via isolated switching binder (FIGS. 10A to 10D); conditions: target antigen HRP, anti-HRP antibody not immobilized; calculated from amount of isolated switching binder; read-out: antigen-binding coefficient (Kd) of the antibody in solution, measured using the switching binder
Description: The pretreatment step (S100″) may include providing the switching binder 100 to an antibody 10 to obtain a mixed solution containing a first conjugate (b1) of the antibody 10 and the switching binder 100, and the switching binder 100 not bound to the antibody 10 (S110); and removing the switching binder 100 not bound to the antibody 10 from the mixed solution (S120). For example, the mixed solution passes through a desalting column to remove the unbound switching binder passing through the desalting column […], and only the first conjugate (b1) passing through the desalting column later can be obtained. The above-described method is exemplary, and various known techniques for separating the first conjugate and the switching binder 100 may be referred to.
Then, as the step of providing an analyte, in the antigen processing step (S200″), the step of separating the first conjugate (b1) from the framework regions (FR, FR) by binding the target antigen 20 to the antibody 10 may be performed. […]
Then, the assay step (S300″) may further include the steps of separating the second conjugate (b2) of the antibody 10 to which the switching binder 130 separated from the antibody 10 and the target antigen 20 are bound (S310); and quantifying the separated switching binder 130 (S320). […] Thereafter, only the separated switching binder 130 may be selectively obtained and quantified through a labeling reaction. At this time, as the concentration of the target antigen 20 increases, the amount of the switching binder 130 separated from the second conjugate (b2) increases, thereby increasing the fluorescence amount of the solution.
In an embodiment, in the assay step (S300″), a test kit that can measure the amount of the switching binder 130 separated according to the increase in the concentration of the target antigen 20 and measure the binding strength of the target antigen 20 to the antibody 10 can be provided. In order to measure the binding strength, the antigen-binding coefficient (Kd) of the antibody 10 may be measured. […]

[5] = test system: switching binder of SEQ ID NO. 2 (H2) / switching binder of SEQ ID NO. 3 (L1); assay: FRET test of mutual binding between switching binders H2 and L1 (FIG. 5E)
Description: 2 (H2) and the switching binder of SEQ ID NO. 3 (L1). Accordingly, it can be confirmed that the switching binder of SEQ ID NO. 2 […] can self-bind and interact with the LAR region of the light chain (VL), and the switching binder of SEQ ID NO. 3 (L1) can self-bind and interact with the HAR region of the heavy chain (VH). Through this, the switching binder 100 having an amino acid sequence extracted from the heavy chain (VH) can bind to the antigen-binding portion 15 including the framework region (FR) of the light chain (VL), and the switching binder 100 having an amino acid sequence extracted from the light chain (VL) can bind to the antigen-binding portion 15 including the framework region (FR) of the heavy chain (VH).

[6] = test system: anti-HRP antibody; assay: SPR analysis of switching binder binding to immobilized antibody (FIG. 7B); conditions: 10 and 20 μM peptide
Description: Referring to FIG. 7B, in an embodiment, a result of a surface plasmon resonance (SPR) analysis may be confirmed. Surface Plasmon Resonance (SPR) uses a phenomenon that when a material binds to the surface of a metal thin film such as gold, the refractive index of the metal surface changes. When the light is irradiated, the concentration of the material bound to the metal surface can be measured by examining the resonance angle at which the SPR phenomenon occurs among the reflected light.
Specifically, in order to confirm the SPR signal result, the gold surface was treated overnight with 1 mM mercaptoundecanoic acid (MUA) and surface-modified prior to immobilization of the antibody 10. Carbodiimide/N-Hydroxysuccinimide (EDC/NHS, 0.4 M/0.1 M) was mixed in a 1:1 ratio and treated for 10 minutes to activate functional groups. […] The SPR signal can be measured as an average value by repeating the routine of measuring the SPR signal for 3 minutes while the solution is stopped after flowing 1% Tween-20 washing solution for 1 minute three times.
However, the embodiment is not limited to the embodiment of the present disclosure and may include any method capable of measuring the binding strength of the switching binder 100. […] As a result of peptide treatment at a low concentration of 10 μM, shown in the graph on the left (B1), the SPR signal was calculated as the peptide of SEQ ID NO. […]

| Sequence | remaining amount (B) of switching binder bound to framework region compared to amount (A) bound to antibody [1] | bead-based one-step immunoassay feasibility [2] | FRET mutual binding between H1 and L2 [3] | Kd [4] | FRET mutual binding between H2 and L1 [5] | binding to the antibody by SPR [6] |
| --- | --- | --- | --- | --- | --- | --- |
| SYWIHWVKQRPGQGLEWIGE [H1, SYWIHWVKQRPGQGLEWIGE] | reduced | possible | mutual binding |  |  |  |
| VYYCAREPTGTGIYFDVWGK [H2, VYYCAREPTGTGIYFDVWGK] | reduced |  |  | 2.9 µM | mutual binding |  |
| TYLEWYPQKPGQSPKLLIYK [L1, TYLEWYPQKPGQSPKLLIYK] | reduced | possible |  | 0.89 µM | mutual binding |  |
| VYYCFQGSHVPFTK [L2, V-Y-Y-C-F-Q-G-S-H-V-P-F-T-K] | reduced |  | mutual binding | 1.2 µM |  | binds the most |

Reference: patent publication US20230073007A1, “SWITCHING BINDER, PREPARATION METHOD THEREFOR, AND PHARMACEUTICAL COMPOSITION, ASSAY KIT, AND ANTIGEN AND ANTIBODY ASSAY METHOD, EACH USING SAME” (OPTOLANE TECHNOLOGIES INC., priority 2019, published 2023)
